“And” between values parts separate entries of the source, which are not always exact repeats. Equal entries are not always repeated. Where two headings read alike, the source gives them in different places.
Assays:
[1] = biological target: T. brucei PKAR-PKAC1 holoenzyme (Trypanosoma brucei, UniProt Q9GU80); assay: biochemical; type: biochemical; conditions: for In vitro kinase assay: technical replicates
[2] = biological target: T1, mammalian PKARIα2–2PKACα holoenzyme (Homo sapiens, UniProt P10644); assay: In vitro kinase assay with purified mammalian holoenzyme; type: biochemical, human PKARIα, mouse PKACα; conditions: for In vitro kinase assay: technical replicates
T1 construct: The full length ORFs (amplified with primers introducing the respective); made in house; host or cells: E. coli strain APE304 (adenylate cyclase-deficient)

PKAC1/2 = type: cell-based, Trypanosoma brucei; conditions: 4 µM; for PKAC1/2 normalized: normalized to PFR-A/C; for PKAC1/2 fold change: untreated WT set to 1;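 as to all read-outs here: trypanosoma brucei cells, PKAC1/2 signal from western blots read on an infrared fluorescence scanning system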
metacaspase 4 (MCA4) = type: cell-based, Trypanosoma brucei; conditions: for MCA4 counts / MCA4 normalized / MCA4 fold change: 4 µM; for MCA4 normalized: normalized to PFR-A/C; for MCA4 fold change: untreated WT set to 1
T. brucei PKAR(199–499) = T. brucei PKAR(199–499) (Trypanosoma brucei, UniProt Q9GU80); assay: biochemical; type: binding; set-up: Thermodynamics (ITC) -TΔS / Thermodynamics (ITC) ΔG / Thermodynamics (ITC) ΔH: unit: kcal/mol
T. brucei BSF cells (WT) = assay: Alamar blue cell viability assay, wild type; conditions: for EC50: wild type cells;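 as to all read-outs here: trypanosomes seeded at 5×10^3 per ml and grown 72 h with compound, then resazurin 0.5 mM added for 4 h as the viability read-out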
[3] = system: T. brucei ∆pkar/∆pkar (pkar KO) cells; assay: microbe, parasite or virus in culture; type: cell-based, Trypanosoma brucei; conditions: for EC50: pkar KO cells
human PKARIα = biological target: T2, human PKARIα (Homo sapiens, UniProt P10644); assay: Binding by isothermal titration calorimetry (ITC)
T2 construct: The full length ORFs (amplified with primers introducing the respective); 6xHis followed by TEV site (N); made in house; host or cells: E. coli Rosetta D3

[4] = system: RXXS*/T* site phosphorylation; assay: Western blot of global RXXS*/T* site phosphorylation (phospho-PKA substrate antibody); type: cell-based, Trypanosoma brucei; conditions: wild type, 2 µM, 10 min
T. brucei PKA [5] = biological target: T3, T. brucei PKA (Trypanosoma brucei brucei, UniProt Q9GU80); assay: In vivo PKA reporter assay (VASP Ser-157 phosphorylation, western blot); type: cell-based;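 also: T. brucei cells expressing human VASP as heterologous PKA substrate, compound exposure at 37 °C, western blot of phospho (50 kDa) versus unphosphorylated (46 kDa) VASP band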
[6] = system: T. brucei PKA holoenzyme (Ty1-PKAC1); type: biochemical, Trypanosoma brucei; conditions: for in vitro kinase assay [CPM], average: average of 3; for in vitro kinase assay [CPM]: independent replicates
[7] = system: T. brucei PKA holoenzyme (PKAR-Ty1); type: biochemical, Trypanosoma brucei; conditions: for in vitro kinase assay [CPM], average: average of 3; for in vitro kinase assay [CPM]: independent replicates
[8] = system: T. brucei PKA holoenzyme (HA-PKAC2); type: biochemical, Trypanosoma brucei; conditions: for in vitro kinase assay [CPM], average: average of 3; for in vitro kinase assay [CPM]: independent replicates
T. brucei PKA [9] = biological target: T3, T. brucei PKA; conditions: ref Shalaby et al. (reference 23 in manuscript); cited from earlier work

Chain of T. brucei PKAR-PKAC1 holoenzyme (Q38DR5 entry or part of it): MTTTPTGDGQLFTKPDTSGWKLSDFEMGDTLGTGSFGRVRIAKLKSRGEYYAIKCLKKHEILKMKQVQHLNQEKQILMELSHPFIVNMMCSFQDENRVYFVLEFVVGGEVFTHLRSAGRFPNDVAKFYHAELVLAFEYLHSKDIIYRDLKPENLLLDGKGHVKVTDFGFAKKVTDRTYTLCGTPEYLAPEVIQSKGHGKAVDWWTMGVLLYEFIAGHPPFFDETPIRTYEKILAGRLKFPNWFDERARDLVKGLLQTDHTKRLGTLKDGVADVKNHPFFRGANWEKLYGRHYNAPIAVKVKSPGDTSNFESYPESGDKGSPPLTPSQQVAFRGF
Chain of T. brucei PKAR-PKAC1 holoenzyme (Q9GU80 entry or part of it): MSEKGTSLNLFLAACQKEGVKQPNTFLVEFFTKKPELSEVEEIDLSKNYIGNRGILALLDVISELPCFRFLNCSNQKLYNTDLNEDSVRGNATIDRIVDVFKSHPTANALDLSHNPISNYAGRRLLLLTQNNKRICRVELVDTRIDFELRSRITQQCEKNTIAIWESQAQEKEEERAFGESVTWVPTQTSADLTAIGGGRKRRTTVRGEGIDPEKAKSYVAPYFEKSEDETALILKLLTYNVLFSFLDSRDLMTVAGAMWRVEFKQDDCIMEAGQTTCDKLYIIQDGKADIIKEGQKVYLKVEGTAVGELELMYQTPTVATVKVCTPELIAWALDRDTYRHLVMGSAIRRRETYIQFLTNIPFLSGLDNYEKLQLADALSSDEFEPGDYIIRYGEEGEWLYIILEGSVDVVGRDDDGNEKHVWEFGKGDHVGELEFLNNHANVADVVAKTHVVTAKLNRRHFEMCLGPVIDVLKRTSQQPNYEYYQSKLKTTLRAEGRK
T3 sequence (Q38DS1 entry or part of it): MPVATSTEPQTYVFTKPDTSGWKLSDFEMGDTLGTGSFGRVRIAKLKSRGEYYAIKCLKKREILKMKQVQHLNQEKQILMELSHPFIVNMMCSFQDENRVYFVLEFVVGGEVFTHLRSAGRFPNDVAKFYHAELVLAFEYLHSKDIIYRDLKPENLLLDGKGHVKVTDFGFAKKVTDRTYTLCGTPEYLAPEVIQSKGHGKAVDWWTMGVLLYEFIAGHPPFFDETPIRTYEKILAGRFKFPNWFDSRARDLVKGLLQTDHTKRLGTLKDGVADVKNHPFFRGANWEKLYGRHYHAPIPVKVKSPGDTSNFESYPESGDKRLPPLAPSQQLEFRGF
T3 sequence (Q38DR5 entry or part of it, further chain): as the sequence (Q38DR5 entry or part of it) above
Chain of T. brucei PKAR(199–499) (Q9GU80 entry or part of it): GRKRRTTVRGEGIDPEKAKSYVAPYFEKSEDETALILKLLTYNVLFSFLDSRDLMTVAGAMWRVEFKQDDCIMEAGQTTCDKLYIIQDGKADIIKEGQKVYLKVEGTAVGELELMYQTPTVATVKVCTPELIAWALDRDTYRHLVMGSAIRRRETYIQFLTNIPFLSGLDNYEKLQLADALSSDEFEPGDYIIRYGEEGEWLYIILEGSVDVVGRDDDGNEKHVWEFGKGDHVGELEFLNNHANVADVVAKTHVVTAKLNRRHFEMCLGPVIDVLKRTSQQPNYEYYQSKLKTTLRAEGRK
T1 sequence (P10644 whole entry): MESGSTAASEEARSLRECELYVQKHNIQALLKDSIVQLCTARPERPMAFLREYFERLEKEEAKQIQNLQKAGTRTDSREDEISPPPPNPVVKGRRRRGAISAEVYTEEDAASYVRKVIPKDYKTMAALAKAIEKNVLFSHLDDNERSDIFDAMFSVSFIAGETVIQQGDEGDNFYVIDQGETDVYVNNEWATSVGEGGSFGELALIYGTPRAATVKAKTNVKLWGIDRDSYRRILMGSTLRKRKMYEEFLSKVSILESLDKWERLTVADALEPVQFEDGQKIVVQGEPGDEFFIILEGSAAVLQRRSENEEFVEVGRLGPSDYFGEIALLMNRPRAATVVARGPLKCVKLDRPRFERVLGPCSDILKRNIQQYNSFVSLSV
T2 sequence (P10644 whole entry): as above

With `N#Cc1cn([C@@H]2O[C@H](CO)[C@@H](O)[C@H]2O)c2ncnc(N)c12` [Toyo, 7-Cyano-7-deazaadenosine] the “In vitro kinase assay” value ([1]; 0.001 µM) was 0.11 U/ml and 0.14 U/ml, the “In vitro kinase assay” value ([1]; 0.01 µM) was 0.16 U/ml and the “In vitro kinase assay” value ([1]; 0.02 µM) was 0.18 U/ml and 0.15 U/ml. For the same compound, the “In vitro kinase assay” value ([1]; 0.04 µM) was 0.31 U/ml and 0.25 U/ml, the “In vitro kinase assay” value ([1]; 0.08 µM) was 0.3 U/ml and 0.33 U/ml and the “In vitro kinase assay” value ([1]; 0.16 µM) was 0.45 U/ml and 0.4 U/ml. For the same compound, the “In vitro kinase assay” value ([1]; 0.31 µM) was 0.58 U/ml and 0.64 U/ml, the “In vitro kinase assay” value ([1]; 0.63 µM) was 0.61 U/ml and 0.73 U/ml and the “In vitro kinase assay” value ([1]; 1.25 µM) was 0.71 U/ml and 0.74 U/ml. The “In vitro kinase assay” value ([1]; 2.5 µM) was 0.78 U/ml and 0.82 U/ml, the “In vitro kinase assay” value ([1]; 5 µM) was 0.82 U/ml and 0.75 U/ml and 4.49 U/ml and 4.39 U/ml and the EC50 ([1]; kemptide phosphorylation, mean ± SD, read-out: EC50 in vitro PKA assay) was 0.234 ± 0.092 µM. For the same compound, the “In vitro kinase assay” value ([2]; 0.05 µM) was 0.0536 U/ml and 0.052 U/ml, the “In vitro kinase assay” value ([2]; 0.5 µM) was 0.0466 U/ml and 0.0501 U/ml and the “In vitro kinase assay” value ([2]; 5 µM) was 0.0571 U/ml and 0.0671 U/ml. For the same compound, the “In vitro kinase assay” value ([2]; 50 µM) was 0.067 U/ml and 0.0605 U/ml, the “activation of mammalian PKARIα2–2PKACα holoenzyme, in words” value ([2]; up to 270-fold above EC50 for T. brucei PKA holoenzyme) was “did not activate” and the PKAC1/2 counts (PKAC1/2; WT, 12 h) was 34.11. For the same compound, the PKAC1/2 normalized (PKAC1/2; WT, 12 h) was 23.6875, the PKAC1/2 fold change (PKAC1/2; WT, 12 h) was 0.1712 and the PKAC1/2 counts (PKAC1/2; WT, 18 h) was 35.81. The PKAC1/2 normalized (PKAC1/2; WT, 18 h) was 45.3291, the PKAC1/2 fold change (PKAC1/2; WT, 18 h) was 0.3275 and the PKAC1/2 counts (PKAC1/2; WT, 24 h) was 31.4. The PKAC1/2 normalized (PKAC1/2; WT, 24 h) was 33.0526, the PKAC1/2 fold change (PKAC1/2; WT, 24 h) was 0.2388 and the PKAC1/2 counts (PKAC1/2; pkar KO, 12 h) was 38.16. It also gave a PKAC1/2 normalized (PKAC1/2; pkar KO, 12 h) of 1.357, a PKAC1/2 fold change (PKAC1/2; pkar KO, 12 h) of 0.08353 and a PKAC1/2 counts (PKAC1/2; pkar KO, 18 h) of 35.91. It also gave a PKAC1/2 normalized (PKAC1/2; pkar KO, 18 h) of 1.945, a PKAC1/2 fold change (PKAC1/2; pkar KO, 18 h) of 0.1198 and a PKAC1/2 counts (PKAC1/2; pkar KO, 24 h) of 34.95. The PKAC1/2 normalized (PKAC1/2; pkar KO, 24 h) was 2.111, the PKAC1/2 fold change (PKAC1/2; pkar KO, 24 h) was 0.13 and the MCA4 counts (metacaspase 4 (MCA4); WT, 12 h) was 10.96. The MCA4 normalized (metacaspase 4 (MCA4); WT, 12 h) was 7.611, the MCA4 fold change (metacaspase 4 (MCA4); WT, 12 h) was 0.5155 and the MCA4 counts (metacaspase 4 (MCA4); WT, 18 h) was 19.07. For the same compound, the MCA4 normalized (metacaspase 4 (MCA4); WT, 18 h) was 24.1392, the MCA4 fold change (metacaspase 4 (MCA4); WT, 18 h) was 1.635 and the MCA4 counts (metacaspase 4 (MCA4); WT, 24 h) was 23.58. For the same compound, the MCA4 normalized (metacaspase 4 (MCA4); WT, 24 h) was 24.8211, the MCA4 fold change (metacaspase 4 (MCA4); WT, 24 h) was 1.681 and the “MCA4 abundance, in words” value (metacaspase 4 (MCA4); later time points, PKA-independent) was “elevated”. The MCA4 counts (metacaspase 4 (MCA4); pkar KO, 12 h) was 13.45, the MCA4 normalized (metacaspase 4 (MCA4); pkar KO, 12 h) was 0.4781 and the MCA4 fold change (metacaspase 4 (MCA4); pkar KO, 12 h) was 0.9855. The MCA4 counts (metacaspase 4 (MCA4); pkar KO, 18 h) was 12.35, the MCA4 normalized (metacaspase 4 (MCA4); pkar KO, 18 h) was 0.669 and the MCA4 fold change (metacaspase 4 (MCA4); pkar KO, 18 h) was 1.379. For the same compound, the MCA4 counts (metacaspase 4 (MCA4); pkar KO, 24 h) was 14.17, the MCA4 normalized (metacaspase 4 (MCA4); pkar KO, 24 h) was 0.8557 and the MCA4 fold change (metacaspase 4 (MCA4); pkar KO, 24 h) was 1.764. The “MCA4 abundance, in words” value (metacaspase 4 (MCA4); wild type, 12 h post induction) was “decreased”, the Kd (T. brucei PKAR(199–499); 298 K, mean ± SD, n=3, read-out: KD in vitro binding to PKAR (ITC)) was 0.057 ± 0.025 µM and the “−TΔS (entropic component of binding)” value (T. brucei PKAR(199–499); ITC, mean) was -3.8 kJ/mol. For the same compound, the “Thermodynamics (ITC) -TΔS” value (T. brucei PKAR(199–499); independent replicates) was -2.01 and -0.373 and -0.411, the “Thermodynamics (ITC) ΔG” value (T. brucei PKAR(199–499); independent replicates) was -10.3 and -9.67 and -9.84 and the “Thermodynamics (ITC) ΔH” value (T. brucei PKAR(199–499); independent replicates) was -8.26 and -9.3 and -9.43. The “Molar ratio of binding (ITC)” value (T. brucei PKAR(199–499); ligand to protein, mean ± SD, n=3) was 2.1 ± 0.1, the IC50 (T. brucei BSF cells (WT); Trypanosoma brucei, 72 h, read-out: IC50 growth WT) was 0.739 ± 0.059 µM and the EC50 (T. brucei BSF cells (WT); Trypanosoma brucei, read-out: EC50, Alamar blue cell viability assay, WT, individual replicate results) was 0.866 µM. For the same compound, the EC50 (T. brucei BSF cells (WT); read-out: EC50, Alamar blue cell viability assay, WT, individual replicate results) was 0.746 µM and 0.898 µM and 0.614 µM and 0.641 µM and 0.51 µM and 0.901 µM, the IC50 ([3]; Trypanosoma brucei, 72 h, read-out: IC50 growth pkar KO) was 0.69 ± 0.058 µM and the EC50 ([3]; Trypanosoma brucei, read-out: EC50, Alamar blue cell viability assay, KO, individual replicate results) was 0.941 µM. For the same compound, the EC50 ([3]; read-out: EC50, Alamar blue cell viability assay, KO, individual replicate results) was 0.768 µM and 0.56 µM and 0.61 µM and 0.492 µM and 0.666 µM and 0.791 µM, the “binding to purified human PKARIα, in words” value (human PKARIα) was “did not bind” and the “increase in global RXXS*/T* site phosphorylation” value [4] was 3–4 fold. The EC50 (T. brucei PKA [5]; VASP reporter, 15 min treatment, mean ± SD, read-out: EC50 in vivo PKA assay) was 0.088 µM and 0.0876 µM and the “induction of VASP phosphorylation in pkar knock out, in words” value (T. brucei PKA [5]; homozygous deletion of PKAR) was “did not induce phosphorylation of VASP”.
In the case of `Nc1nc2c(ncn2[C@@H]2O[C@@H]3COP(=O)(O)O[C@H]3[C@H]2O)c(=O)[nH]1` [cGMP], the “concentration at which the holoenzyme is activated” value [6] is reported as at least 100 µM, the “in vitro kinase assay [CPM], PKI” value ([6]; 0.1 mM + 5 µM PKI(5-24), Supp Fig 3b) is reported as 1147.4 CPM and the “in vitro kinase assay [CPM], average” value ([6]; 0.1 mM, Supp Fig 3b) is reported as 13459.0 CPM. The “in vitro kinase assay [CPM]” value ([6]; 0.1 mM, Supp Fig 3b) was 15124.3 CPM and 11079.5 CPM and 14173.3 CPM, the “in vitro kinase assay [CPM], PKI” value ([6]; 1 mM + 5 µM PKI(5-24), Supp Fig 3b) was 3732 CPM and the “in vitro kinase assay [CPM], PKI” value ([6]; 1 mM + 5 µM PKI(5-24), Supp Fig 3c) was 1928.6 CPM. The “in vitro kinase assay [CPM], average” value ([6]; 1 mM, Supp Fig 3b) was 48614.9 CPM, the “in vitro kinase assay [CPM]” value ([6]; 1 mM, Supp Fig 3b) was 51091.7 CPM and 52665 CPM and 42088 CPM and the “in vitro kinase assay [CPM], average” value ([6]; 1 mM, Supp Fig 3c) was 18465.6 CPM. The “in vitro kinase assay [CPM]” value ([6]; 1 mM, Supp Fig 3c) was 15510 CPM and 18398 CPM and 21488.7 CPM, the “concentration at which the holoenzyme is activated” value [7] was at least 100 µM and the “in vitro kinase assay [CPM], PKI” value ([7]; 0.1 mM + 5 µM PKI(5-24)) was 1137.33 CPM. For the same compound, the “in vitro kinase assay [CPM], average” value ([7]; 0.1 mM) was 8446.6 CPM, the “in vitro kinase assay [CPM]” value ([7]; 0.1 mM) was 9140 CPM and 8772.75 CPM and 7427.05 CPM and the “in vitro kinase assay [CPM], PKI” value ([7]; 1 mM + 5 µM PKI(5-24)) was 3682.78 CPM. The “in vitro kinase assay [CPM], average” value ([7]; 1 mM) was 22856.7 CPM, the “in vitro kinase assay [CPM]” value ([7]; 1 mM) was 17347.2 CPM and 27346.7 CPM and 23876.3 CPM and the “concentration at which the holoenzyme is activated” value [8] was at least 100 µM. For the same compound, the “in vitro kinase assay [CPM], PKI” value ([8]; 0.1 mM + 5 µM PKI(5-24)) was 375.47 CPM, the “in vitro kinase assay [CPM], average” value ([8]; 0.1 mM) was 2249 CPM and the “in vitro kinase assay [CPM]” value ([8]; 0.1 mM) was 2477.88 CPM and 2206.3 CPM and 2062.83 CPM. For the same compound, the “in vitro kinase assay [CPM], PKI” value ([8]; 1 mM + 5 µM PKI(5-24)) was 760.33 CPM, the “in vitro kinase assay [CPM], average” value ([8]; 1 mM) was 8405.46 CPM and the “in vitro kinase assay [CPM]” value ([8]; 1 mM) was 9366.36 CPM and 9774.29 CPM and 6075.73 CPM. For the same compound, the “cGMP concentration activating T. brucei PKA” value (T. brucei PKA [9]) was at least 20 µM.
